The subject of one assay is VE-cadherin and ZO-1. In words: Expression levels and patterns of junctional proteins (immunofluorescence). The format is cell-based, human. The note with it: HUVECs; VEGF 50 ng/mL, 90 minutes; test substance 10 and 100 nM. From the text:
Whether the test substance (SE101B2L) could regulate changes in permeability caused by VEGF-induced changes in membrane protein stability of vascular endothelial cells was confirmed. Expression levels and patterns of VE-cadherin and ZO-1, which are junctional proteins associated with vascular stability and permeability and connect cells to one another, were confirmed. One circular coverslip having a diameter of 12 mm was placed in each well of a 24-well plate, and gelatin was applied using a 2% gelatin solution to facilitate cell attachment. Into the prepared wells, 1 × 10^5 HUVECs were seeded per well. The cells were cultured in an incubator with 5% CO2 at 37°C for 4 days, with the growth medium replaced every other day. After confirming that the cells had become completely confluent, the cells were incubated for 1 hour using serum-free CEFOgro-HUVEC medium. At this time, the test substance was added to the corresponding wells to final concentrations of 10 and 100 nM. Upon completion of the incubation, VEGF at a final concentration of 50 ng/mL was added, followed by incubation for an additional 90 minutes. The incubated samples were fixed at room temperature for 15 minutes using a 10% formalin solution. […] The corresponding samples were photographed under a fluorescence microscope.

Assay [1] relates to ARPE19 cells. Put plainly: Cell viability under hydrogen peroxide-induced oxidative stress (CCK-8). Format: cell-based, Human. The note with it: 400 µM hydrogen peroxide, test substance 0.01, 0.1, 1, 2 µM, 24 hours. The method, then:
(§1) Human retinal pigment epithelial cells (ARPE19) were cultured in a humidified incubator with 5% CO2 at 37°C. DMEM/F12 (Gibco) containing 10% fetal bovine serum and penicillin (100 U/ml)/streptomycin ([…]) was used as medium. The cells were cultured with the medium replaced with fresh medium every other day and were passaged using 0.25% trypsin containing 0.02% ethylenediaminetetraacetic acid (EDTA).
After oxidative stress was induced in human retinal pigment epithelial cells using hydrogen peroxide (H2O2), the test substance (SE101B2L) was added at varying concentrations to confirm changes in cell viability. CCK-8 was used to confirm cell viability.
ARPE19 cells were seeded into a 96-well plate at 1 × 10^4 cells/well and cultured in an incubator for 24 hours. The test substance was added to each treatment group at concentrations of 0, 0.01, 0.1, 1, and 2 µM, together with 400 µM hydrogen peroxide, followed by incubation for 24 hours. […] After incubation, a 96-well plate containing 90 µL of cell suspension per well was inoculated with 10 µL of ready-to-use CCK-8 solution. The plate was incubated for 2 hours, and the OD450 of the supernatant was measured to confirm cell viability through quantification.

The test system of assay [2] is ARPE19 cells. In words: Hydrogen peroxide-induced cellular senescence (SA-β-Gal activity staining). Format: cell-based, Human. The note with it: 200 µM hydrogen peroxide, test substance 0.01, 0.1, 1 µM, 24 hours. The method, then:
as §1
After cellular senescence caused by oxidative stress was promoted in ARPE19 cells using hydrogen peroxide (H2O2), the test substance (SE101B2L) was added at varying concentrations to evaluate inhibitory effects against cellular senescence. Inhibitory activity against cellular senescence was evaluated using senescence-associated β-galactosidase (SA-β-Gal) activity staining, which is well known as a marker for cellular senescence.
ARPE19 cells were seeded into a 96-well plate at 1 × 10^5 cells/well and cultured in an incubator with 5% CO2 at 37°C for 24 hours. […] Cells stained blue were observed under an optical microscope, and the degree of SA-β-gal activity was expressed as a percentage by measuring the number of cells stained blue in the cytoplasm among a total of 50 to 100 cells. The degree of senescence was quantified through measurement.

“decylbenzoyl-Cys-Phe-Lys-amide [SE101B2L]”: the “expression levels and patterns of junctional proteins between cells (VE-cadherin, ZO-1)” value in the assay with VE-cadherin and ZO-1 is given as “appear similarly to those of the untreated group in a concentration-dependent manner”. In addition, the cell viability result with ARPE19 cells [1] is on record as “increases cell viability in a concentration-dependent manner”. The SA-β-gal activity result in the assay with ARPE19 cells [2] is recorded as “decreases SA-β-gal activity in a concentration-dependent manner”.

(Values after patent EP4813999A1, “NOVEL PEPTIDE DERIVATIVE AND PHARMACEUTICAL COMPOSITION FOR PREVENTING OR TREATING MACULAR DEGENERATION COMPRISING SAME” (Supadelixir Inc., priority 2023, dated 2026).)
